# Source: patent US9926605B2, “Functional genomics screening platform for head and neck cancer” (University of Pittsburgh—of the Commonwealth System of …, priority 2012, dated 2018)
# Tests used:
# [1] = test system: UMSCC-47 cells expressing PIK3CA (WT) or PIK3CA (E542K) mutant; conditions: 0 to 10 μM, 72 h; PIK3CA WT or E542K expressing cells vs vector control
# Experimental: Retrovirus-infected UMSCC-47 cells expressing control EGFP gene, PIK3CA (WT) or PIK3CA (E542K) mutant were subjected to BEZ-235 (from 0 to 10 μM) treatment for 72 h followed by growth determinations.
# To determine the effects of individual PIK3CA mutations on sensitivity to PI3K pathway inhibitors in HNSCC, we tested the effects of a representative PI3K pathway inhibitor (BEZ-235) in HPV-HNSCC cells engineered to express mutant or WT PIK3CA (E542K) a HNSCC line harboring a PIK3CA mutation.
# [2] = test system: UM-SCC47 cells expressing the HRAS(Q61K) mutant; assay: Growth inhibition of UM-SCC47 cells expressing HRAS(Q61K); assay type: cell-based, human; conditions: 250 nM, 24 hours; HRAS(Q61K) vs HRAS WT and EGFP vector control cells, n=4
# Experimental: (A) HRAS wildtype (WT) and HRAS (Q61K) mutant or an EGFP vector control was introduced into the HPV-HSNCC cell line, UM-SCC47, by retroviral infection.
# To test whether increased PI3K signaling can be achieved by mutations in HRAS, a hotspot HRAS mutation found in our HNSCC cohort, HRAS(Q61K), was generated. Experiments were performed to determine the effect this mutation had on PI3K activation and response to PI3K pathway inhibition.
# [3] = test system: PE/CA-PJ49 (PTPRD I1821V) versus PE/CAPJ34 (Clone 12) HNSCC cells; assay: MTT assay in HNSCC cell lines with endogenous mutant versus WT PTPRD; assay type: cell-based, human; conditions: 24 hours, n=3, mutant PTPRD (I1821V) cells vs WT PTPRD cells
# Experimental: To determine if PTPR mutation enhances sensitivity to STAT3 pathway inhibitors, HNSCC cell lines harboring endogenous PTPR mutation were compared with cell lines containing WT PTPRs. Cells were plated at equal density (3×10^4/well), treated with various concentration of the STAT3 inhibitors, Stattic (Sigma-Aldrich, MO), a small molecule inhibitor of STAT3 activation and dimerization, or JSI-124 (Calbiochem, MA) for 24 hours, followed by MTT assay (n=3). EC50 values were determined, with extrapolation at 20 μM, by GraphPad Prism 5 software.
# WT JAK2 = WT JAK2 (Homo sapiens, UniProt O60674); conditions: read-out: enzyme IC50; cited from earlier work
# Chain of WT JAK2 (O60674 whole entry): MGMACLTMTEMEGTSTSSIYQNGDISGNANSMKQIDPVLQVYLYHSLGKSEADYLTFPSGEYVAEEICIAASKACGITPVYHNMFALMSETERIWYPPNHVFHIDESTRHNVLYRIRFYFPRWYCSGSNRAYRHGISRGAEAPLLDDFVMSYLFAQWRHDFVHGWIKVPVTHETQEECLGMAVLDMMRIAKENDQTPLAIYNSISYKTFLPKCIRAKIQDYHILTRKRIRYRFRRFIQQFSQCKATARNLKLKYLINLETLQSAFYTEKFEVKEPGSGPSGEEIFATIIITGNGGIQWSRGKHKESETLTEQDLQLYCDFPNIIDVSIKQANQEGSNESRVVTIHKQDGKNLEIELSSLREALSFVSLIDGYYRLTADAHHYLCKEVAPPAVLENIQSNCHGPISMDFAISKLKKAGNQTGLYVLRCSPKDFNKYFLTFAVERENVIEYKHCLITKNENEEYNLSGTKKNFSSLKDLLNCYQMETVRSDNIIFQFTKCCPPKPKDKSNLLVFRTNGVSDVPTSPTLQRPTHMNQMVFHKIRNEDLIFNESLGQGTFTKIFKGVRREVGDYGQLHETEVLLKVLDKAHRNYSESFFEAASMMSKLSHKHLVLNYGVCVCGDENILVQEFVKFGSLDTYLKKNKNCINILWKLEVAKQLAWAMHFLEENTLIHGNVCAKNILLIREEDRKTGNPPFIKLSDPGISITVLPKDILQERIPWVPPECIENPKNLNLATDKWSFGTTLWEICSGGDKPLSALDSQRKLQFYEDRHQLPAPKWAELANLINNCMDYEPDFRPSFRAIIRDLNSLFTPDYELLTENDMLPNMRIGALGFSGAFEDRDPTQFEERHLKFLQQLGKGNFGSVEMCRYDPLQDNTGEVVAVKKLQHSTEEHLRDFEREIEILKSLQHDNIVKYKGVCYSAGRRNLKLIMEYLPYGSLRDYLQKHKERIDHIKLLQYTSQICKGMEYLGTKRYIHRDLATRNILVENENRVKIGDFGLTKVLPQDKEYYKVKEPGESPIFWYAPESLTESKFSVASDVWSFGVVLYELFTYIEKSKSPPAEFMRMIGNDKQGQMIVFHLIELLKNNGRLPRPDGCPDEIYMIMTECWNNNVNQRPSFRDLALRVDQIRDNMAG
# [4] = test system: HNSCC patient tumorgrafts; assay: Heterotopic HNSCC patient tumorgrafts in NOD/SCID mice; assay type: in vivo
# Experimental: FIG. 12A-B. AZD1480 inhibits HNSCC patient tumorgraft growth in conjunction with reduce pSTAT3 expression. (A) Mice bearing heterotropic HNSCC patient tumorgrafts derived from 2 patients (10 mice per group) were treated with AZD1480 (30 mg/kg) or vehicle control, twice daily by oral gavage. Tumor volumes were measures every other day. Statistical difference was determined at the end of the experiment using the Mann-Whitney two-tailed test. (B) Tumors were harvested at the end of treatment, and whole cell lysates were prepared and subjected to immunoblotting with pSTAT3 (Tyr705) and STAT3 antibody. Beta-tubulin was used to assess protein loading. Densitometry was performed and bar graphs illustrate the cumulative findings from each HNSCC tumorgraph experiment.
# In vivo studies have generally relied on xenograft tumors derived from implantation of immortalized HNSCC cell lines into immunocompromised mice. To generate a more clinically relevant platform to assess the antitumor effects of candidate therapies, human tumors were directly inoculated into NOD/SCID mice. To date, implanted tumors from 35 HNSCC patients were obtained according to previously described methods. Twenty-six of these tumors have grown successfully in mice at a median time of 16 weeks (range 6-26 weeks) for a take rate of 74%. […]
# [5] = test system: phospho-STAT3 (Tyr705) in UMSCC-1 cells; assay: pSTAT3 (Tyr705) immunoblotting in HNSCC cell line; assay type: cell-based, human; conditions: increasing concentration, 24 hours, immunoblot
# Experimental: FIG. 13. […] UMSCC-1 cells were treated with increasing concentration of AZD1480. After 24 hours, cells were harvested to obtain cell lysates. Forty micrograms of protein/lane were subjected to electrophoresis and immunoblotted for phosphor-STAT3 (Tyr705) and total STAT3. Beta-tubulin was used as a loading control.
# (§1) The effect of AZD1480 on STAT3 tyrosine phosphorylation and cell growth was further assessed in a panel of HNSCC cell lines.
# 9 HNSC cell lines = assay: Proliferation of a panel of HNSCC cell lines; assay type: cell-based; conditions: Homo sapiens; range in 9 HNSC cell lines tested; data not shown; read-out: EC50 (inhibition of proliferation)
# Text: as §1
# [6] = test system: UM-SCC1 cells expressing mutant PTPRD (P1311T); assay: MTT survival and STAT3 promoter activity in UM-SCC1 cells expressing mutant PTPRD; assay type: cell-based, human; conditions: PTPRD mutant cells compared with controls
# Experimental: FIG. 14. […] UM-SCC1 cells expressing mutant PTPRD (P1311T) or vector control were treated with AZD1480 (5 μm) or DMSO (vehicle) followed by MTT assay to determine % survival relative to vehicle control. Results are mean±SEM, performed in triplicate.
# as §1
# [7] = test system: PCI-52-SD1 cells expressing PTPRT(R1059L); assay: Growth inhibition of PCI-52-SD1 cells expressing PTPRT(R1059L) by JAK/STAT inhibitor; assay type: cell-based, human; conditions: 24 hours of treatment; PTPRT(R1059L) cells vs vector control cells, n=4
# Text: FIG. 6. Mutation of PTPRT(R1059L) leads to increased sensitivity to STAT3 inhibition in PCI-52-SD1 cells. PCI-52-SD1 cells were infected with retrovirus expressing the PTPRT(R1059L) mutant gene or PTPRT wildtype (WT) versus vector control (pMXs-EGFP vector).
# Overall, our models can be used to determine if the mutation detected in a human tumor is important for tumor growth and facilitate selection of the appropriate therapeutic agents.
smiles,measurement,setting,value
Cn1c(=O)n(-c2ccc(C(C)(C)C#N)cc2)c2c3cc(-c4cnc5ccccc5c4)ccc3ncc21 [BEZ-235],sensitivity to BEZ-235 treatment (growth),[1],more sensitive to BEZ-235 treatment than vector control transfected cells
same,sensitivity to growth inhibition,[2],more sensitive to growth inhibition
O=[N+]([O-])c1ccc2c(c1)S(=O)(=O)C=C2 [Stattic],sensitivity to growth inhibitory effects of STAT3 pathway inhibitors,[3],more sensitive to the growth inhibitory effects
"Cc1cc(Nc2nc(N[C@@H](C)c3ncc(F)cn3)ncc2Cl)n[nH]1 [AZD1480, 5-chloro-N2-[(1S)-1-(5-fluoropyrimidin-2-yl)ethyl]-N4-(5-methyl-1H-pyrazol-3-yl)pyrimidine-2,4-diamine]",IC50,WT JAK2,< 3 nM
same,antitumor effects (tumorgraft growth),"[4]; heterotopic HNSCC patient tumorgrafts in mice, AZD1480 30 mg/kg twice daily by oral gavage",demonstrated antitumor effects
same,expression of pSTAT3 and STAT3 target genes in tumors,"[4]; heterotopic xenografts from 2 HNSCC human tumors, end of treatment",decreased expression of pSTAT3 and STAT3 target genes
same,pSTAT3 expression,[5],reduced pSTAT3 expression in a dose- and time-dependent manner
same,EC50,9 HNSC cell lines,990 to 3800 nM
same,survival,"[6]; AZD1480 5 μm, MTT",decreased survival
same,STAT3 promoter activity,[6],decreased survival and STAT3 promoter activity
CC(C)(O)/C=C/C(=O)[C@](C)(O)[C@H]1[C@H](O)C[C@@]2(C)[C@@H]3CC=C4[C@@H](C=C(O)C(=O)C4(C)C)[C@]3(C)C(=O)C[C@]12C [JSI-124],sensitivity to growth inhibition,[7],more sensitive to growth inhibition
same,sensitivity to growth inhibitory effects of STAT3 pathway inhibitors,[3],more sensitive to STAT3 pathways inhibitors
